Assay results from patent publication US20050209336A1, “EP2 receptor agonists” (priority 2003, published 2005).
pEC50: −log10 of the molar value. Read-outs that look alike come from different tables or passages of the source.

Columns and labels:
[1] = biological target: T1, human EP1 receptor (Homo sapiens, UniProt P34995); experiment: Radioligand ([3H]PGE2) competition displacement binding, human EP1 receptor membranes; settings: [3H]PGE2 displacement, read-out: pKi EP1 (converted)
T1 construct: expressed in transfected cells
T1 sequence (P34995 1-402): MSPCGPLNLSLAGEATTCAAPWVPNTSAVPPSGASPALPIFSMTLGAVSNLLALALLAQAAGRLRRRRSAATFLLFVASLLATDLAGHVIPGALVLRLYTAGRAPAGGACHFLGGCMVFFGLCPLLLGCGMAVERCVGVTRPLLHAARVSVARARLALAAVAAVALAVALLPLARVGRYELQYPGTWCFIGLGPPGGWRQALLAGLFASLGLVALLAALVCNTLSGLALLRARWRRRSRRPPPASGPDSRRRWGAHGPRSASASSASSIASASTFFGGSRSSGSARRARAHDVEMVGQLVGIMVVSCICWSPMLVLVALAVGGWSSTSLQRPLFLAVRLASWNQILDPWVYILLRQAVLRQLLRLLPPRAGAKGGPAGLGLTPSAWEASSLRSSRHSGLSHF
Protocol: Membranes were prepared from cells stably transfected with human EP receptor cDNA. In brief, cells were cultured to confluency, scraped from culture flasks, and centrifuged (800 g, 8 minutes, 4° C.). Cells were twice washed in ice cold homogenisation buffer containing 10 mMTris-HCl, 1 mM EDTA.2Na, 250 mM sucrose, 1 mM PMSF, 0.3 mM indomethacin, pH 7.4, homogenised and re-centrifuged as before. The supernatant was stored on ice and pellets re-homogenised and re-spun. Supernatants were pooled and centrifuged at 40000 g, 10 minutes, 4° C. Resultant membrane pellets were stored at −80° C. until use.
For assay, membranes expressing human EP4, EP3, EP2 or EP1 receptors were incubated in Millipore (MHVBN45) plates containing assay buffer, radiolabelled [^3H]PGE2 and 0.1 to 10 000 nM concentrations of compounds. Incubations were performed at suitable temperatures and for suitable times to allow equilibrium to be reached. Non-specific binding was determined in the presence of 10 uM PGE2. Bound and free radiolabel was separated by vacuum manifold filtration using appropriate wash buffers, and bound radiolabel was determined by scintillation counting. Constituents of each of the buffers are included in table 4 below.
The affinity or pKi of each compound for each receptor was calculated from the concentration causing 50% radioligand displacement (IC50) using the Cheng-Prusoff equation: [formula] […]

[2] = system: TNFα production by alveolar macrophages; experiment: Alveolar macrophage assay: LPS-induced TNFα release; type: cell-based, human; settings: Homo sapiens, Macrophage, inhibition of TNFα production, LPS 1 μg/ml, 24 h, mean of three donors
Protocol: Human lung parenchyma was cut into small pieces and perfused with ice-cold phosphate buffered saline (PBS) to remove contaminating blood and mucus. The tissues were then chopped with scissors in the presence of Minimum Essential Medium supplemented with penicillin, streptomycin, L-glutamine and DNase (0.25 mg/ml). The chopped tissues were shaken gently to dislodge the macrophages. A crude cell suspension was then obtained by the removal of the tissues with a sterile filter (150 μm pore size). The resulting cell suspension was spun and the cell pellet collected. Contaminating red blood cells were depleted with a red blood cell lysis buffer and the remaining cells washed twice with PBS by centrifugation. Alveolar macrophages were then purified from this cell preparation by using a positive selection method for CD14-molecule bearing cells using a VarioMac™ Separator and respective positive selection reagents and columns supplied by Miltenyi Biotec Ltd according to the manufacturer's instruction.
For the assay, alveolar macrophages were resuspended in complete culture medium consisting of RPMI1640 supplemented with 10% foetal calf serum, L-glutamine and antibiotics. The cells were then plated into 24 well plates (4×10^5 cell/well) and incubated overnight at 37° C. with 5% CO2 in air to allow cell adherence. The exhausted medium was then removed from the plates and the plates rinsed briefly with fresh medium before the addition of test compound solutions. The test compounds were incubated with the cells for 30 minutes before the addition of E. Coli LPS (1 μg/ml). The assay plates were incubated in a humidified incubator at 37° C. with 5% CO2 in air for 24 hours. The release of TNFα by the cells into the culture supernatants was quantified using an ELISA kit (DuoSet® human TNFα ELSIA Development System) supplied by R+D Systems (Europe) according to the manufacturer's instruction. Indomethacin at 3 μM was included in all treatments to inhibit the possible release of endogenous prostaglandin E2.

[3] = system: lymphocyte proliferation; experiment: Lymphocyte proliferation driven by immobilised anti-CD3 antibody; type: cell-based, human; settings: Homo sapiens, inhibition of lymphocyte proliferation, 72 h, mean of three donors
From the text: (§1) Lymphocytes are mononuclear leukocytes, which participate in specific immune responses to foreign antigens and in the manifestation of auto-immune diseases. T lymphocytes produce IL-2, a key factor for lymphocyte activation and proliferation, in response to antigen stimulation via the CD3-T cell receptor complex and the pathway involved in this response is the NF-AT. […] A lymphocyte assay was designed to model this response and to determine the effect of test compound on IL-2 production by anti-CD3-stimulated T cells isolated from peripheral blood. This assay uses a sub-optimal dose of an anti-CD3 monoclonal antibody (OKT3, 25 ng/ml) immobilised to a 96-well plate to stimulate a T cell response. The level of IL-2 released into the cell culture supernatants was quantified using a standard sandwich ELISA. Similarly, other cytokines such as TNFα and IFN-γ can also be measured in the same assay.
(§2) Human peripheral blood mononuclear cells from healthy volunteers were isolated from whole blood by Ficoll-Hypaque density centrifugation and adherence to plastic. The non-adherent lymphocyte fraction was used to set up the lymphocyte assay and the adherent monocytes were then recovered by scraping and subsequently used in the monocyte assay.
For the measurement of lymphocyte proliferation driven by immobilised anti-CD3 monoclonal antibody, the assay was set up in the same way as for the measurement of IL-2 release, except that the cells were cultured for 72 hours in the presence or absence of test compounds. Four hours prior to the termination of the proliferation assay, a novel tetrazolium compound solution supplied by Promega in the format of Cell Proliferation Assay Kit was added to individual wells according to the manufacturer's instruction. The plate was then placed back in the incubator for the remaining 4 hours and the […] reaction was measured using a spectrophotometer at an absorbent wavelength of 490 nm (SpectraMax, Molecular Devices) according to the manufacturer's instruction.

[4] = system: TNFα production by lymphocytes; experiment: Lymphocyte assay: TNFα production; type: cell-based, human; settings: Homo sapiens, Lymphocyte, inhibition of TNFα production by lymphocytes, mean of three donors
From the text: as §1, §2
Lymphocytes were then seeded to a 96-well plate pre-coated with anti-CD3 monoclonal antibody (OKT3) at 25 ng/ml and immediately, the test compounds (Peak 1, mixture 1 acid; Peak 1, mixture 2 acid; AH-13205 racemate; PGE2) in appropriate dilutions were added to corresponding wells according to the experimental design. The plate was incubated for 24 hours at 37° C. with 5% CO2 in air and supernatants were recovered for ELISA analysis at the end of incubation period. The levels of IFN-γ was assessed by using the ProteoPlex 16 well human cytokine array assay kit according to the manufacturer's instruction.

[5] = log scale, read-out: Mean Log (EC50) (converted)

SMILES | Ki [1] | pEC50 ([2]; read-out: Mean EC50) | EC50 [2, 5] | pEC50 ([3]; read-out: Mean EC50) | EC50 [3, 5] | pEC50 ([4]; read-out: Mean EC50) | EC50 [4, 5]
CCCCCC(O)c1ccc(C2CCC(=O)C2CCCCCCC(=O)O)cc1 (racemic) [AH13205, (±)-trans-2-[4-(1-hydroxyhexyl)phenyl]-5-oxo-cyclopentaneheptanoic acid, reference compound] | 10 µM | – | – | – | – | – | –
CCCCC[C@H](O)c1ccc([C@H]2CCC(=O)[C@@H]2CCCCCCC(=O)O)cc1 (single isomer, unassigned) [Peak 1, Mixture 1 acid] | – | 5.15 | 7.01 µM | 5.00 | 10 µM | 5.63 | 2.33 µM
